Marks after values point to notes of the source that are not given here.
Columns and labels:
[1] = system: T47D human breast carcinoma cells; assay: Crystal violet colony assay; assay type: cell-based; details: 300 nM, weeks 2-8
Protocol: (§1) The T47D human breast carcinoma cell line was grown in RPMI-1640/1× Glutamax/1× Insulin/10% fetal bovine serum and was plated at 10,000 cells/well in Corning 6-well tissue culture treated plates. Cells were incubated at 37° C. for 24 hours prior to addition of treatment. […] Plates were collected at week 2 and 3, at week 3, 2 plates with only palbociclib were switched to combination treatment. The remaining plates were collected at weeks 5 and 8. Collection was performed by washing wells with PBS before incubating 5 minutes with 0.1% crystal violet/20% methanol. Dye was removed and wells washed 4 times with PBS before being scanned at 1200 dpi. Image J was used to count the % area and colony size for each well (FIG. 8F-I). GraphPad Prism was used for analysis. Cells treated with DMSO control retained large colonies that inhabited the majority of the well surface area from week 3 beyond (FIG. 8F).
as §1, with “6 well tissue culture treated plates. The BT474 human breast carcinoma cell line was grown in DMEM/1× Glutamax/1× Insulin/10% fetal bovine serum and was plated at 25,000 cells/well in Corning 6 well” for “6-well”, “CDK4/6i” for “palbociclib”, “well. Graph pad” for “well (FIG. 8F-I). GraphPad Prism”, “analysis.” for “analysis. Cells treated with DMSO control retained large colonies that inhabited the majority of the well surface area from week 3 beyond (FIG. 8F).”
The T47D human breast carcinoma cell line was grown in RPMI-1640/1× Glutamax/1× Insulin/10% fetal bovine serum and was plated at 10,000 cells/well in Corning 6 well tissue culture treated plates. Cells were incubated at 37° C. for 24 hours prior to addition of treatment. […] Plates were collected at weeks 2 and 3. Collection was performed by washing wells with PBS before incubating 5 minutes with 0.1% crystal violet/20% methanol. Dye was removed and wells washed 4 times with PBS before being scanned at 1200 dpi. Image J was used to count the percent area and colony size for each well and Graph pad was used for analysis.

[2] = Salt screen storage at 40° C./75% RH, XRPD form; assay type: physicochemical; details: ca. 24 hours
Protocol: XRPD analysis was carried out on any isolated solids or gums as described in Example 10 below. The XRPD plate, and the isolated solids, were dried at 40° C. for ca. 24 hours and re-analyzed by XRPD. The XRPD plate was further dried at 40° C./75% RH for ca. 24 hours and XRPD analysis was repeated.
After three days, observations were recorded and solids were isolated by centrifugation. The wet solids were analyzed by XRPD. Solids were dried at 40° C. under vacuum for 72 hours and re-analyzed by XRPD. Solids were dried at 40° C./75% RH for 18 hours and re-analyzed by XRPD.

[3] = system: T47D parental and therapy-resistant cells; assay: Cell cycle by BrdU flow cytometry in therapy-resistant cells; assay type: cell-based, human
Protocol: The therapy resistant cells were previously incubated with abemaciclib, fulvestrant, and/or palbociclib for prolonged periods to the point of developing drug resistance. Cells were plated in Corning 6 well tissue culture treated plates. Cells were treated for 7 days. Media was spiked with 10 μM BrdU prior to collection. Cells were washed in PBS, trypsinized, collected and centrifuged at 300 RCF for 5 mins. Cells were resuspended in cell culture media and transferred into a 96 well V-bottom plate with roughly 300,000 cells per well. Cells were then stained using the Near-IR Fixable Viability Stain (Invitrogen Cat. L34976) for 20 mins at room temperature, protected from light. Cells were fixed and permeabilized using eBioscience FoxP3/Transcription Factor Staining Buffer Set (Cat. 00-5523-00). DNA was denatured using 2N HCl+0.5% (v/v) Triton X-100 for 30 mins room temperature, agitating every 5-10 mins. The acid was neutralized using 0.1M Na2B4O7·10H2O (pH 8.5) followed by 0.5% BSA in PBS. Cells were then stained with BrdU antibody (Clone 3D4, BioLegend Cat. 364118) for 1 hour at room temperature. Prior to acquisition on the BD A3 Symphony, DNA was stained for 30 minutes using FxCycle Violet ReadyFlow Reagent.
Cell staining was then conducted to monitor cellular proliferation and perform cell cycle analysis of these therapy-resistant cells. […] Similarly, abemaciclib- and fulvestrant-resistant (LYFR) cells administered abemaciclib and fulvestrant were not substantially arrested in the G1 phase (FIG. 147H).

H526 cells = assay: CellTiter Glo cell proliferation assay (single agent and chemotherapy combination); assay type: cell-based, human; details: 6 days
Protocol: (§2) Plates returned to incubator for six additional days. On day six post dosing, plates were removed and treated with CellTiter Glo reagent following manufacturer's specifications. Plates incubated 45 minutes at room temperature and run on a Biotek luminometer with 1 sec/well detection. Results were converted to Microsoft Excel and transferred to GraphPad Prism for analysis.
Cells were plated at 250 cells per well in white wall/clear bottom plates and incubated overnight. […] Plates returned to the incubator for six additional days. On day six post dosing, plates were removed and treated with CellTiter Glo reagent following manufacturer's specifications. Plates incubated 45 minutes at room temperature and run on a Biotek luminometer with 1 sec/well detection. Results were converted to Microsoft Excel and transferred to GraphPad Prism for analysis.
(§3) Dose curves ranged from 300 pM to 10 μM in triplicate and treatments lasted for 6 days. Plates were removed from incubator at each specified timepoint and treated with CellTiter-Glo (Promega, Inc) following manufacturer specifications. Plates were then read on CLARIOstar luminometer with 1 sec/well integration.
as §3, with “integration. Results were converted to Microsoft Excel and transferred to GraphPad Prism for Analysis.” for “integration.”

H69 (NCIH69) cells = assay: as above; assay type: cell-based, human; details: 6 days
Protocol: as §2, §3
as §3, with “integration. Results were converted to Microsoft Excel and transferred to GraphPad Prism for Analysis.” for “integration.”

SHP77 cells = assay: as above; assay type: cell-based, human; details: 6 days
Protocol: as §2, §3
as §3, with “integration. Results were converted to Microsoft Excel and transferred to GraphPad Prism for Analysis.” for “integration.”

SMILES: CC(=O)c1c(C)c2cnc(Nc3ccc(N4CCNCC4)cn3)nc2n(C2CCCC2)c1=O [palbociclib, reference compound]
- colony size and percent plate area [1]: cells expanded to cover a large percentage of the plate area

SMILES: NS(=O)(=O)c1ccc(Nc2ncc3cc4n(c3n2)C2(CCCCC2)C(=O)NN4)cc1.O=C(O)CC(O)(CC(=O)O)C(=O)O [citrate Pattern 1]
- XRPD form after storage at 40° C./75% RH ([2]; listed as Citric Acid Salt Pattern 1): poorly crystalline material

SMILES: NS(=O)(=O)c1ccc(Nc2ncc3cc4n(c3n2)C2(CCCCC2)C(=O)NN4)cc1.O=C(O)/C=C\C(=O)O [maleate Pattern 2]
- XRPD form after storage at 40° C./75% RH ([2]; listed as Maleic Acid Salt Pattern 2): loss of crystallinity

SMILES: CCN1CCN(Cc2ccc(Nc3ncc(F)c(-c4cc(F)c5nc(C)n(C(C)C)c5c4)n3)nc2)CC1 [abemaciclib, reference compound]
- cell cycle arrest ([3]; abemaciclib-resistant (LYR) cells): substantially less frequently in the G1 phase
- cell cycle arrest ([3]; parental (PAR) cells): arrested parental (PAR) cell lines in the G1 phase

SMILES: CC[C@@]1(O)C(=O)OCc2c1cc1n(c2=O)Cc2cc3ccccc3nc2-1 [camptothecin, (S)-4-ethyl-4-hydroxy-1H-pyrano[3′,4′:6,7]indolizino[1,2-b]quinoline-3,14-(4H, 12H)-dione, reference compound]
- cellular proliferation, chemotherapeutic alone compared with Compound I alone (H526 cells): lower cellular proliferation IC50 values
- cellular proliferation, chemotherapeutic alone compared with Compound I alone (H69 (NCIH69) cells): lower cellular proliferation IC50 values
- cellular proliferation, chemotherapeutic alone compared with Compound I alone (SHP77 cells): lower cellular proliferation IC50 values

SMILES: COc1cccc2c1C(=O)c1c(O)c3c(c(O)c1C2=O)C[C@@](O)(C(=O)CO)C[C@@H]3O[C@H]1C[C@H](N)[C@H](O)[C@H](C)O1 [doxorubicin, reference compound]
- cellular proliferation, chemotherapeutic alone compared with Compound I alone (H526 cells): better inhibition
- cellular proliferation, chemotherapeutic alone compared with Compound I alone (H69 (NCIH69) cells): better inhibition
- cellular proliferation, chemotherapeutic alone compared with Compound I alone (SHP77 cells): better inhibition

SMILES: NS(=O)(=O)c1ccc(Nc2ncc3cc4n(c3n2)C2(CCCCC2)C(=O)NN4)cc1.O=P(O)(O)O [phosphate Pattern 6]
- XRPD form after storage at 40° C./75% RH [2]: formation of amorphous material
- XRPD form after storage at 40° C./75% RH ([2]; listed as Phosphoric Acid Salt Pattern 6): amorphous material

SMILES: Br.NS(=O)(=O)c1ccc(Nc2ncc3cc4n(c3n2)C2(CCCCC2)C(=O)NN4)cc1 [HBr Pattern 1]
- XRPD form after storage at 40° C./75% RH [2]: loss of crystallinity

SMILES: NS(=O)(=O)c1ccc(Nc2ncc3cc4n(c3n2)C2(CCCCC2)C(=O)NN4)cc1.O=S(=O)(O)c1ccccc1 [besylate Pattern 3]
- XRPD form after storage at 40° C./75% RH [2]: loss in crystallinity

SMILES: NS(=O)(=O)c1ccc(Nc2ncc3cc4n(c3n2)C2(CCCCC2)C(=O)NN4)cc1.O=C(O)/C=C\C(=O)O [maleate Pattern 5]
- XRPD form after storage at 40° C./75% RH ([2]; listed as Maleic Acid Salt Pattern 5): converted to Pattern 1*

SMILES: Cl.NS(=O)(=O)c1ccc(Nc2ncc3cc4n(c3n2)C2(CCCCC2)C(=O)NN4)cc1 [HCl Pattern 2]
- XRPD form after storage at 40° C./75% RH [2]: No form changes were observed

SMILES: CS(=O)(=O)O.NS(=O)(=O)c1ccc(Nc2ncc3cc4n(c3n2)C2(CCCCC2)C(=O)NN4)cc1 [mesylate Pattern 3]
- XRPD form after storage at 40° C./75% RH [2]: converted to Pattern 1

SMILES: CS(=O)(=O)O.NS(=O)(=O)c1ccc(Nc2ncc3cc4n(c3n2)C2(CCCCC2)C(=O)NN4)cc1 [mesylate Pattern 4]
- XRPD form after storage at 40° C./75% RH [2]: converted to Pattern 1

SMILES: NS(=O)(=O)c1ccc(Nc2ncc3cc4n(c3n2)C2(CCCCC2)C(=O)NN4)cc1.O=C(O)CC(O)(CC(=O)O)C(=O)O [citrate Pattern 2]
- XRPD form after storage at 40° C./75% RH ([2]; listed as Citric Acid Salt Pattern 2): new poorly crystalline pattern designated Pattern 4

SMILES: CS(=O)(=O)O.NS(=O)(=O)c1ccc(Nc2ncc3cc4n(c3n2)C2(CCCCC2)C(=O)NN4)cc1 [mesylate Pattern 2]
- XRPD form after storage at 40° C./75% RH [2]: converted to Pattern 1

SMILES: NS(=O)(=O)c1ccc(Nc2ncc3cc4n(c3n2)C2(CCCCC2)C(=O)NN4)cc1.O=C(O)/C=C\C(=O)O [maleate Pattern 4]
- XRPD form after storage at 40° C./75% RH ([2]; listed as Maleic Acid Salt Pattern 4): converted to Pattern 6

Reference: patent US20250199015A1, “CYCLIN-DEPENDENT KINASE 2 INHIBITORS FOR MEDICAL TREATMENT” (INCYCLIX BIO, LLC, priority 2022, published 2025)
